Measured values from the NIST ThermoML archive (doi:10.1021/je301084m).
± gives the expanded uncertainty stated by the source.

Assay: molar heat capacity at constant pressure; wn = mass fraction of the nth substance listed
Conditions: 101 kPa, Liquid, Small sample (50 mg) DSC

Compound: O=[N+]([O-])[O-].[Li+] [lithium nitrate] + O
- molar heat capacity at constant pressure (303.15 K, w1 = 0.3): 79.48 ± 1.8 J/K/mol
- molar heat capacity at constant pressure (303.15 K, w1 = 0.35): 78.8 ± 1.8 J/K/mol
- molar heat capacity at constant pressure (303.15 K, w1 = 0.4): 78.86 ± 1.9 J/K/mol
- molar heat capacity at constant pressure (303.15 K, w1 = 0.45): 80.9 ± 2 J/K/mol
- molar heat capacity at constant pressure (303.15 K, w1 = 0.5): 82.01 ± 2.1 J/K/mol
- molar heat capacity at constant pressure (303.15 K, w1 = 0.55): 83.66 ± 2.2 J/K/mol
- molar heat capacity at constant pressure (313.15 K, w1 = 0.3): 80.01 ± 1.8 J/K/mol
- molar heat capacity at constant pressure (313.15 K, w1 = 0.35): 79.55 ± 1.8 J/K/mol
- molar heat capacity at constant pressure (313.15 K, w1 = 0.4): 79.65 ± 1.9 J/K/mol
- molar heat capacity at constant pressure (313.15 K, w1 = 0.45): 81.5 ± 2 J/K/mol
- molar heat capacity at constant pressure (313.15 K, w1 = 0.5): 82.67 ± 2.1 J/K/mol
- molar heat capacity at constant pressure (313.15 K, w1 = 0.55): 84.48 ± 2.2 J/K/mol
- molar heat capacity at constant pressure (313.15 K, w1 = 0.6): 86.04 ± 2.3 J/K/mol
- molar heat capacity at constant pressure (323.15 K, w1 = 0.3): 80.61 ± 1.8 J/K/mol
- molar heat capacity at constant pressure (323.15 K, w1 = 0.35): 80.5 ± 1.8 J/K/mol
- molar heat capacity at constant pressure (323.15 K, w1 = 0.4): 80.42 ± 1.9 J/K/mol
- molar heat capacity at constant pressure (323.15 K, w1 = 0.45): 81.79 ± 2 J/K/mol
- molar heat capacity at constant pressure (323.15 K, w1 = 0.5): 83.53 ± 2.1 J/K/mol
- molar heat capacity at constant pressure (323.15 K, w1 = 0.55): 84.72 ± 2.2 J/K/mol
- molar heat capacity at constant pressure (323.15 K, w1 = 0.6): 86.29 ± 2.3 J/K/mol
- molar heat capacity at constant pressure (333.15 K, w1 = 0.3): 81.26 ± 1.8 J/K/mol
- molar heat capacity at constant pressure (333.15 K, w1 = 0.35): 81.18 ± 1.8 J/K/mol
- molar heat capacity at constant pressure (333.15 K, w1 = 0.4): 81.37 ± 1.9 J/K/mol
- molar heat capacity at constant pressure (333.15 K, w1 = 0.45): 82.23 ± 2 J/K/mol
- molar heat capacity at constant pressure (333.15 K, w1 = 0.5): 83.73 ± 2.1 J/K/mol
- molar heat capacity at constant pressure (333.15 K, w1 = 0.55): 84.66 ± 2.2 J/K/mol
- molar heat capacity at constant pressure (333.15 K, w1 = 0.6): 86.88 ± 2.3 J/K/mol
- molar heat capacity at constant pressure (343.15 K, w1 = 0.3): 81.58 ± 1.8 J/K/mol
- molar heat capacity at constant pressure (343.15 K, w1 = 0.35): 81.76 ± 1.9 J/K/mol
- molar heat capacity at constant pressure (343.15 K, w1 = 0.4): 81.83 ± 1.9 J/K/mol
- molar heat capacity at constant pressure (343.15 K, w1 = 0.45): 82.71 ± 2 J/K/mol
- molar heat capacity at constant pressure (343.15 K, w1 = 0.5): 84.07 ± 2.1 J/K/mol
- molar heat capacity at constant pressure (343.15 K, w1 = 0.55): 85.17 ± 2.2 J/K/mol
- molar heat capacity at constant pressure (343.15 K, w1 = 0.6): 87.07 ± 2.3 J/K/mol
- molar heat capacity at constant pressure (353.15 K, w1 = 0.3): 82.28 ± 1.8 J/K/mol
- molar heat capacity at constant pressure (353.15 K, w1 = 0.35): 82.27 ± 1.9 J/K/mol
- molar heat capacity at constant pressure (353.15 K, w1 = 0.4): 82.62 ± 1.9 J/K/mol
- molar heat capacity at constant pressure (353.15 K, w1 = 0.45): 83.71 ± 2 J/K/mol
- molar heat capacity at constant pressure (353.15 K, w1 = 0.5): 84.56 ± 2.1 J/K/mol
- molar heat capacity at constant pressure (353.15 K, w1 = 0.55): 86.18 ± 2.2 J/K/mol
- molar heat capacity at constant pressure (353.15 K, w1 = 0.6): 87.75 ± 2.3 J/K/mol
- molar heat capacity at constant pressure (363.15 K, w1 = 0.3): 82.69 ± 1.8 J/K/mol
- molar heat capacity at constant pressure (363.15 K, w1 = 0.35): 82.93 ± 1.9 J/K/mol
- molar heat capacity at constant pressure (363.15 K, w1 = 0.4): 83.28 ± 1.9 J/K/mol
- molar heat capacity at constant pressure (363.15 K, w1 = 0.45): 84.98 ± 2 J/K/mol
- molar heat capacity at constant pressure (363.15 K, w1 = 0.5): 85.84 ± 2.1 J/K/mol
- molar heat capacity at constant pressure (363.15 K, w1 = 0.55): 87.3 ± 2.2 J/K/mol
- molar heat capacity at constant pressure (363.15 K, w1 = 0.6): 88.43 ± 2.3 J/K/mol
- molar heat capacity at constant pressure (373.15 K, w1 = 0.4): 84.15 ± 1.9 J/K/mol
- molar heat capacity at constant pressure (373.15 K, w1 = 0.45): 86.11 ± 2 J/K/mol
- molar heat capacity at constant pressure (373.15 K, w1 = 0.5): 86.64 ± 2.1 J/K/mol
- molar heat capacity at constant pressure (373.15 K, w1 = 0.55): 88.09 ± 2.2 J/K/mol
- molar heat capacity at constant pressure (373.15 K, w1 = 0.6): 89.63 ± 2.3 J/K/mol
